From paper PMC5294416, “Novel peptides for deciphering structural and signalling functions of E-cadherin in mouse embryonic stem cells” (Scientific Reports, 2017)
“Also recorded” adds a separate entry of the source.

Key:
[1] = molecular target: T1, recombinant mouse E-Cadherin Fc Chimera (Mus musculus, UniProt P09803); assay: Biacore SPR equilibrium binding analysis (affinity capture)
T1 construct: purchased R&D Systems
Description: Biacore SPR analysis was used to measure the interaction between peptides and recombinant mouse E-Cadherin Fc Chimera (R&D Systems). Analytes were passed over an HTE chip with surface bound His-tagged Recombinant Mouse E-Cadherin Fc Chimera (R&D Systems). The kinetics of interaction, i.e. the rates of complex formation (ka) and dissociation (kd), were determined and Integrin α4β7 protein was used as a control. Analysis was performed by the Biomolecular Analysis Core Facility (The University of Manchester, UK) on a Proteon XPR-36 protein interaction array system (Bio-Rad) using a HTE chip for high capacity His-tagged protein capture (Bio-Rad). Equilibrium analysis runs were performed three times and an average KD was calculated. Running buffer: HBS/0.02%, Tween/2 mM, CaCl2/1 mM MgCl2.

[2] = system: wtD3 mESCs; assay: Loss of cell-cell contact, phase contrast microscopy; format: cell-based, mouse
Description: (§1) Unless otherwise stated, mESC lines were grown on gelatinised tissue culture grade 6-well plates at 37 °C/5% CO2, as previously described. mESCs cells were treated with 10 μM peptide in mESC culture medium which was replenished every 24 h. Inhibition of specific pathways in mESCs was achieved by incubation with 10 μM LY294002 (PI3K inhibitor), PD9805 (MEK inhibitor) and SB431542 (TGFβ1 R inhibitor).

[3] = system: STAT3 phosphorylation in wtD3 mESCs; assay: Western blot analysis of phosphorylated STAT3; format: cell-based, mouse
Description: as §1
(§2) Cells were harvested using cell dissociation buffer, centrifuged and washed with PBS prior to lysis using Radioimmunoprecipitation (RIPA) buffer (Sigma) containing protease inhibitor cocktail tablets (1 tablet per 10 ml RIPA buffer) (Roche Applied Science) at a concentration of 2 × 10^7 cell/ml. Lysates were separated by SDS-PAGE and electrotransferred onto nitrocellulose membrane as previously described. The membrane was probed using the appropriate primary antibody with subsequent incubation with HRP-conjugated secondary antibody. The membrane was exposed to an autoradiographic film (Hyperfilm ECL, GE Healthcare, Amersham, UK) for the appropriate time period in an X-ray cassette before the film was manually developed in a dark room using Kodak GBX developer and fixer solutions (Sigma, Dorset, UK). Primary antibodies: anti-α-tubulin, 1:2000 dilution (T9026, Sigma, Dorset, UK); anti-AKT, 1:200 dilution (#9272, Cell Signalling Technology, MA, USA); anti-pAKT (Ser473), 1:200 (#4060S, Cell Signalling Technology, MA, USA); anti-STAT3, 1:200 dilution (SC-482, Santa Cruz Biotechnology Inc, TX, USA); anti-pSTAT3, 1:200 dilution (#9138S, Cell Signalling Technology, MA, USA).

[4] = system: Nanog, Klf4, Tbx3, Esrrb, Nr0b1, Nr5a2 and Tet1 transcripts in wtD3 mESCs; assay: qPCR analysis of pluripotency transcript expression; format: cell-based, mouse
Description: as §1
Primers for qPCR were designed using the Roche Applied science Universal Probe Library software and BLAST screened for sequence specificity. Only primers producing a single dissociation peak were used. RNA was extracted from mESCs and cDNA at a concentration of 2 ng/μl was used for analysis in a MicroAmp Optical 96-well Reaction Plate (Applied Biosystems) using SYBR green Jumpstart Taq ReadyMix (Applied Biosystems). Primer sequences: 18srRNA Forward (F) […], Reverse (R) […]; ESRRB F-[…], R-[…]; KLF4 F-[…], R-ATGTCCGCCAGGTTGAAG; NANOG F-[…], R-[…]; NR0B1 F-[…], R-[…]; NR5A2 F-[…], R-[…]; TBX3 F-[…], R-[…]; TET1 F-[…], R-[…].

[5] = system: NANOG protein in wtD3 mESCs; assay: Immunofluorescence microscopy analysis of NANOG protein expression; format: cell-based, mouse; conditions: 96 h / 4 days where stated
Description: Monolayer cultured mESCs were fixed in situ in 4% w/v PFA in PBS for 30 minutes at room temperature, washed twice with PBS and blocked with 1% goat serum in 0.1% w/v BSA, 0.1% Triton X-100 in PBS for 30 minutes. Cells were incubated in the appropriate primary antibody in goat blocking buffer for two hours at RT. Cells were washed three times in PBS and incubated in the appropriate Alexa fluor-488 or −546 conjugated secondary antibody at RT for 1 hour in the dark. Cells were washed three times with PBS, mounted in 4′6-diamidino-2-phenylindole (DAPI) (Vector Laboratories) and visualized using a Leica DM6000B fluorescence microscope (Leica Microsystems) and processed using Leica LAS X Core software (Leica Microsystems). Primary antibodies: anti-Nanog, 1:200 dilution (ab80892, Abcam Plc, Cambridge, UK); anti-Oct4, 1:200 dilution (ab19857, Abcam Plc, Cambridge, UK). […] Cells were visualized using a Leica DM6000B fluorescence microscope (Leica Microsystems) and processed using Leica LAS X Core software (Leica Microsystems).
(§3) Images were imported into ImageJ and fluorescence intensity measured using the Analyse > Measure function on areas selected using the rectangular or oval selection icons.

[6] = system: OCT4 protein in wtD3 mESCs; assay: Immunofluorescence microscopy analysis of OCT4 protein expression with pathway inhibitors; format: cell-based, mouse
Description: as §1
Monolayer cultured mESCs were fixed in situ in 4% w/v PFA in PBS for 30 minutes at room temperature, washed twice with PBS and blocked with 1% goat serum in 0.1% w/v BSA, 0.1% Triton X-100 in PBS for 30 minutes. Cells were incubated in the appropriate primary antibody in goat blocking buffer for two hours at RT. Cells were washed three times in PBS and incubated in the appropriate Alexa fluor-488 or −546 conjugated secondary antibody at RT for 1 hour in the dark. Cells were washed three times with PBS, mounted in 4′6-diamidino-2-phenylindole (DAPI) (Vector Laboratories) and visualized using a Leica DM6000B fluorescence microscope (Leica Microsystems) and processed using Leica LAS X Core software (Leica Microsystems). Primary antibodies: anti-Nanog, 1:200 dilution (ab80892, Abcam Plc, Cambridge, UK); anti-Oct4, 1:200 dilution (ab19857, Abcam Plc, Cambridge, UK). For immunofluorescence microscopy analysis of fluorescent-tagged peptides, cells were incubated in 500 μM peptide in cell culture medium for 15 minutes, washed twice in ice cold PBS and mounted with Vectorshield containing DAPI. Cells were visualized using a Leica DM6000B fluorescence microscope (Leica Microsystems) and processed using Leica LAS X Core software (Leica Microsystems).
as §3

[7] = system: pERK1/2 in wtD3 mESCs; assay: Western blot analysis of phosphorylated ERK1/2; format: cell-based, mouse
[8] = system: mESCs; assay: Cell viability in monolayer culture; format: cell-based, mouse; conditions: data not shown
[9] = system: Akt phosphorylation in mESCs; assay: Akt phosphorylation in treated mESCs; format: cell-based, mouse; conditions: data not shown
Description: as §2

[10] = system: MCF-7; conditions: MCF-7 cell line; cited from earlier work
Description: (§4) E-cadherin provides an attractive target to manipulate ESCs in culture since cell signalling mediated through this protein has significant effects on both ESC pluripotent states and survival. We have previously shown that abrogation of E-cadherin-mediated cellular aggregation allows culture of mESCs in shake flask bioreactors whilst retaining pluripotency, either through gene knockout or an inhibitory antibody DECMA-1[16]. However, utilisation of E-cadherin neutralising Abs for ESC culture is expensive and more cost-effective E-cadherin inhibitors are required before this technique becomes com ...

[11] = system: STAT3 phosphorylation in wtD3 mESCs; conditions: mESC; cited from earlier work
Description: as §4

[12] = system: wtD3 mESCs; conditions: mESC cell line; cited from earlier work
Description: as §4

[13] = transcript, mESCs, Fig. 6a summary

Substance: H-SWELYYPLRANL-NH2 [Epep, H-SWELYYPLRANL-NH2]
- Kd ([1]; equilibrium analysis using affinity capture on HTE chip, peptide stock in water, average of three runs, running buffer HBS/0.02% Tween/2 mM CaCl2/1 mM MgCl2): 3400 nM
- Kd ([1]; peptide dissolved in 10%v/v DMSO/H2O, equilibrium analysis using affinity capture): 1150 nM
- Loss of cell-cell contact (10μM)? ([2]; mESCs, 10 μM, Fig. 6a summary): YES
- Effect on cell-cell contact (in words) ([2]; wtD3 mESCs, 10 μM peptide, 24 h, phase contrast): loss of cell-cell contact after 24 h; also recorded: loss of cell-cell contact within 24 h
- Cell-cell contact after removal of the inhibitor ([2]; wtD3 mESCs, 24 h post-removal of treatment): restoration of cell-cell contact; also recorded: reversible
- Loss of pStat3 ([3]; mESCs, Fig. 6a summary): YES
- Effect on STAT3 phosphorylation (in words) ([3]; wtD3 mESCs vs control treated cells, western blot): decreased STAT3 phosphorylation within 24 h; also recorded: significantly decreased phosphorylation of STAT3
- Transcripts restored to control levels after removal of inhibitor ([4]; mESCs, 24 h post-removal): Nanog, Esrrb, Tbx3 and Tet1
- Loss of ESRRB [4, 13]: YES
- Loss of Klf4 [4, 13]: YES
- Loss of Nanog [4, 13]: YES
- Loss of Nr0b1 [4, 13]: YES
- Loss of Nr5a2 [4, 13]: YES
- Loss of TBX3 [4, 13]: YES
- Transcripts with decreased expression compared to control (qPCR) ([4]; wtD3 mESCs, 10 μM peptide, 24 h): Nanog, Klf4, Tbx3, Esrrb, Nr0b1, Nr5a2 and Tet1
- Transcripts remaining significantly decreased after removal of inhibitor ([4]; wtD3 mESCs, 24 h following removal): Klf4, Nr0b1 and Nr5a2
- NANOG protein expression [5]: decreased NANOG protein expression
- OCT4 protein expression in the presence of SB431542 ([6]; peptide-treated wtD3 mESCs plus Activin/Nodal inhibitor SB431542, after 5 days): maintained expression of OCT4 protein
- OCT4 protein expression in the presence of SU5402 ([6]; peptide-treated wtD3 mESCs plus FGFR1 inhibitor SU5402, after 5 days): maintained expression of OCT4 protein
- pERK1/2 compared to untreated mESCs [7]: decreased pERK1/2
- cell viability in monolayer culture [8]: no significant difference in cell viability
- Akt phosphorylation [9]: no changes in Akt phosphorylation
- inhibition of E-cadherin mediated cell-cell contact [10]: inhibit E-cadherin mediated cell-cell contact
- phosphorylation of STAT3 [11]: abrogate phosphorylation of STAT3
- inhibition of E-cadherin mediated cell-cell contact [12]: inhibit E-cadherin mediated cell-cell contact
